This is an account of results in patent US20070258926A1, “Composition containing retinoic acid nanoparticles coated with inorganic salt of polyvalent metal” (LTT BIO-PHARMA CO., LTD., priority 2003, published 2007).

This assay has as its system hyaluronic acid. Conditions: topical application, mice.

Method: The dorsal skin of mice (ddy strain/5 week old/male) was clipped with electric clippers and a Vaseline based retinoic acid preparation (containing 0.1% retinoic acid) was applied to the clipped area 10 mg/cm^2 per day for 4 consecutive days.

With `CC1=C(/C=C/C(C)=C/C=C/C(C)=C/C(=O)O)C(C)(C)CCC1` [retinoic acid, all-trans retinoic acid], the “colloidal iron staining of basal cells and prickle cells of the epithelium (production of hyaluronic acid)” value is given as “less significant”.
